system: 8XTBD luciferase reporter; assay: YAP Reporter Assay; format: cell-based; conditions: Homo sapiens, HEK-293T; HEK293T cells stably transfected with 8XTBD luciferase reporter and pRLTK; 24-hr incubation; starting from 3 μM, 1:3 dilution, 10 points; read-out: Firefly Luciferase IC50
Method in brief: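 HEK293T cells stably carrying the 8XTBD firefly luciferase reporter and TK-renilla control received compounds at a 10-point, 1:3 series from 3 μM (final) in quadruplicate. After 24 h at 37° C, Dual-Glo luminescence was read. IC50 and maximal inhibition were reported separately for firefly and renilla signals.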

IC50 [µM] | Structure (SMILES)
> 3 | CNS(=O)(=O)c1ccc(Nc2ccccc2C(F)(F)F)c(-c2nnn(C)n2)c1 [Compound 93, N-methyl-3-(2-methyl-2H-tetrazol-5-yl)-4-((2-(trifluoromethyl)phenyl)amino)benzenesulfonamide]
≤ 0.1 | CNS(=O)(=O)c1ccc(Nc2cccc(OC(F)(F)F)c2)c(-c2nnn(C)n2)c1 [Compound 94, N-methyl-3-(2-methyl-2H-tetrazol-5-yl)-4-((3-(trifluoromethoxy)phenyl)amino)benzenesulfonamide]
≤ 0.1 | CNS(=O)(=O)c1ccc(Nc2ccc(C(F)(F)F)cc2)c(-c2nnn(C)n2)c1 [Compound 95, N-methyl-3-(2-methyl-2H-tetrazol-5-yl)-4-((4-(trifluoromethyl)phenyl)amino)benzenesulfonamide]
> 3 | CNS(=O)(=O)c1ccc(Nc2ccc(C(F)(F)F)cc2)c(-c2nnnn2C)c1 [Compound 96, N-methyl-3-(1-methyl-1H-tetrazol-5-yl)-4-((4-(trifluoromethyl)phenyl)amino)benzenesulfonamide]
> 3 | CNS(=O)(=O)c1ccc(Nc2cccc(C(F)(F)F)c2)c(-c2nnnn2C)c1 [Compound 97, N-methyl-3-(1-methyl-1H-tetrazol-5-yl)-4-((3-(trifluoromethyl)phenyl)amino)benzenesulfonamide]
> 3 | CNS(=O)(=O)c1ccc(Nc2ccccc2C(F)(F)F)c(-c2nnnn2C)c1 [Compound 98, N-methyl-3-(1-methyl-1H-tetrazol-5-yl)-4-((2-(trifluoromethyl)phenyl)amino)benzenesulfonamide]
> 3 | CNS(=O)(=O)c1ccc(Nc2ccc(OC(F)(F)F)cc2)c(-c2nnnn2C)c1 [Compound 99, N-methyl-3-(1-methyl-1H-tetrazol-5-yl)-4-((4-(trifluoromethoxy)phenyl)amino)benzenesulfonamide]
> 3 | CNS(=O)(=O)c1ccc(Nc2cccc(OC(F)(F)F)c2)c(-c2nnnn2C)c1 [Compound 100, N-methyl-3-(1-methyl-1H-tetrazol-5-yl)-4-((3-(trifluoromethoxy)phenyl)amino)benzenesulfonamide]
> 3 | CNS(=O)(=O)c1ccc(Nc2ccccc2OC(F)(F)F)c(-c2nnnn2C)c1 [Compound 101, N-methyl-3-(1-methyl-1H-tetrazol-5-yl)-4-((2-(trifluoromethoxy)phenyl)amino)benzenesulfonamide]
> 3 | CNS(=O)(=O)c1ccc(Nc2ccccc2OC(F)(F)F)c(-c2nnn(C)n2)c1 [Compound 102, N-methyl-3-(2-methyl-2H-tetrazol-5-yl)-4-((2-(trifluoromethoxy)phenyl)amino)benzenesulfonamide]
≤ 0.1 | CNS(=O)(=O)c1ccc(Nc2ccc(OC(F)(F)F)cc2)c(-c2nnn(C)n2)c1 [Compound 103, N-methyl-3-(2-methyl-2H-tetrazol-5-yl)-4-((4-(trifluoromethoxy)phenyl)amino)benzenesulfonamide]
0.1 to 1 | CNS(=O)(=O)c1ccc(Nc2cccc(F)c2F)c(-c2nnn(C)n2)c1 [Compound 104, 4-((2,3-difluorophenyl)amino)-N-methyl-3-(2-methyl-2H-tetrazol-5-yl)benzenesulfonamide]
≤ 0.1 | CNS(=O)(=O)c1ccc(NC2CCCCC2)c(-c2nnc(C)o2)c1 [Compound 105, 4-(cyclohexylamino)-N-methyl-3-(5-methyl-1,3,4-oxadiazol-2-yl)benzenesulfonamide]
> 3 | CNS(=O)(=O)c1ccc(Nc2cccc(F)c2F)c(-c2nnnn2C)c1 [Compound 106, 4-((2,3-difluorophenyl)amino)-N-methyl-3-(1-methyl-1H-tetrazol-5-yl)benzenesulfonamide]
> 3 | CNS(=O)(=O)c1ccc(Nc2cc(F)cc(F)c2)c(-c2nnnn2C)c1 [Compound 107, 4-((3,5-difluorophenyl)amino)-N-methyl-3-(1-methyl-1H-tetrazol-5-yl)benzenesulfonamide]
0.1 to 1 | CNS(=O)(=O)c1ccc(Nc2cc(F)cc(F)c2)c(-c2nnn(C)n2)c1 [Compound 108, 4-((3,5-difluorophenyl)amino)-N-methyl-3-(2-methyl-2H-tetrazol-5-yl)benzenesulfonamide]
> 3 | CNS(=O)(=O)c1ccc(Nc2cc(F)ccc2F)c(-c2nnnn2C)c1 [Compound 109, 4-((2,5-difluorophenyl)amino)-N-methyl-3-(1-methyl-1H-tetrazol-5-yl)benzenesulfonamide]
≤ 0.1 | CNS(=O)(=O)c1ccc(Nc2cc(F)ccc2F)c(-c2nnn(C)n2)c1 [Compound 110, 4-((2,5-difluorophenyl)amino)-N-methyl-3-(2-methyl-2H-tetrazol-5-yl)benzenesulfonamide]
≤ 0.1 | CNS(=O)(=O)c1ccc(NC2CCCCC2)c(-c2cn(C3CC3)cn2)c1 [Compound 111, 4-(cyclohexylamino)-3-(1-cyclopropyl-1H-imidazol-4-yl)-N-methylbenzenesulfonamide]
≤ 0.1 | CCn1cnc(-c2cc(S(=O)(=O)NC)ccc2NC2CCCCC2)c1 [Compound 112, 4-(cyclohexylamino)-3-(1-ethyl-1H-imidazol-4-yl)-N-methylbenzenesulfonamide]
≤ 0.1 | CNS(=O)(=O)c1ccc(NC2CCCCC2)c(-c2cn(C(C)C)cn2)c1 [Compound 113, 4-(cyclohexylamino)-3-(1-isopropyl-1H-imidazol-4-yl)-N-methylbenzenesulfonamide]
> 3 | CCn1cncc1-c1cc(S(=O)(=O)NC)ccc1NC1CCCCC1 [Compound 114, 4-(cyclohexylamino)-3-(1-ethyl-1H-imidazol-5-yl)-N-methylbenzenesulfonamide]
0.1 to 1 | CNS(=O)(=O)c1ccc(Nc2ccc(C(F)(F)F)cc2)c(-c2nnn(CCOCc3ccccc3)n2)c1 [Compound 115, 3-(2-(2-(benzyloxy)ethyl)-2H-tetrazol-5-yl)-N-methyl-4-((4-(trifluoromethyl)phenyl)amino)benzenesulfonamide]
≤ 0.1 | CNS(=O)(=O)c1ccc(Nc2ccc(C(F)(F)F)cc2)c(-c2nnn(CCO)n2)c1 [Compound 116, 3-(2-(2-hydroxyethyl)-2H-tetrazol-5-yl)-N-methyl-4-((4-(trifluoromethyl)phenyl)amino)benzenesulfonamide]
0.1 to 1 | CNS(=O)(=O)c1ccc(Nc2cccc(F)c2)c(-c2nnn(C)n2)c1 [Compound 117, 4-((3-fluorophenyl)amino)-N-methyl-3-(2-methyl-2H-tetrazol-5-yl)benzenesulfonamide]
1 to 3 | CNS(=O)(=O)c1ccc(Nc2ccc(-c3ccccc3)cc2)c(-c2nnn(C)n2)c1 [Compound 128, N-methyl-3-(2-methyltetrazol-5-yl)-4-(4-phenylanilino) benzenesulfonamide]
1 to 3 | CNS(=O)(=O)c1ccc(Nc2ccc(Oc3ccccc3)cc2)c(-c2nnn(C)n2)c1 [Compound 130, N-methyl-3-(2-methyltetrazol-5-yl)-4-(4-phenoxyanilino) benzenesulfonamide]
≤ 0.1 | CNS(=O)(=O)c1ccc(Nc2cccc(-c3ccccc3)c2)c(-c2nnn(C)n2)c1 [Compound 131, N-methyl-3-(2-methyltetrazol-5-yl)-4-(3-phenylanilino) benzenesulfonamide]

— patent US11192865B2, “Benzosulfonyl compounds” (Vivace Therapeutics, Inc., priority 2017, dated 2021)
